Here are results for 37 compounds from US20090197856A1, “ANTIVIRAL COMPOUNDS” (Genelabs Technologies, Inc., priority 2007, published 2009).

The first assay concerns the target T1, HCV-NS5b (Hepatitis C virus genotype 1b, UniProt Q9WMX2).
T1 construct: (His)6 (C); made in house; host or cells: XL-1 cells (E. coli), IPTG-inducible plasmid
Put plainly: HCV-NS5b enzyme assay using homopolymer substrate. Type of assay: biochemical.
Conditions: not given
The procedure, abridged: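 C-terminal 21-residue-truncated His6-tagged NS5b polymerase, [3H]-UTP incorporation (30 μM UTP) on 50 nM biotinylated poly(A)/U20 template, pH 7.5, 0.3 mM MgCl2, 5% DMSO, 90 min at 30° C, SPA read-out. Ten-point two-fold dilutions (2 nM–50 μM); IC50 from four-parameter fit, Top/Bottom constrained.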
As to `CC(C)NC(=O)c1cn2c3c(cccc13)-c1c(C3CCCCC3)c3ccc(C(=O)O)cc3n1CCC2` [Compound 443], the IC50 amounted to 121 nM.
Regarding `CCN(CC)C(=O)C(=O)c1cn2c3c(cccc13)-c1c(C3CCCCC3)c3ccc(C(=O)O)cc3n1CCC2` [Compound 453], the IC50 is 212 nM.
Still for that read-out and setting: with `O=C(O)c1ccc2c(C3CCCCC3)c3n(c2c1)CCCn1cc(C(=O)CN2CCCCC2)c2cccc-3c21` [Compound 454] the figure was 348 nM.

Still in this assay, the particulars now being: homopolymer substrate, [3H]-UTP incorporation, 30° C., 90 minutes; read-out: IC50.
Turning to `N#Cc1cn2c3c(cccc13)-c1c(C3CCCCC3)c3ccc(C(=O)O)cc3n1CCC2` [Compound 444], the IC50 was found to be 215 nM.
Regarding `O=C(O)c1ccc2c(C3CCCCC3)c3n(c2c1)CCCn1cc(-c2nnn[nH]2)c2cccc-3c21` [Compound 445], the IC50 is 103 nM.
Take `N=C(N)c1cn2c3c(cccc13)-c1c(C3CCCCC3)c3ccc(C(=O)O)cc3n1CCC2` [Compound 446]: the IC50 was 169 nM.
Consider `NC1CCN2CCn3c(c(C4CCCCC4)c4ccc(C(=O)O)cc43)-c3cc(F)cc1c32` (stereo not shown) [Compound 447], for which the IC50 worked out at 59 nM.
For the compound `CN1CCN(CCc2cn3c4c(cccc24)-c2c(C4CCCCC4)c4ccc(C(=O)O)cc4n2CCC3)CC1` [Compound 449], the IC50 stood at 253 nM.
For `CCN(CC)CCc1cn2c3c(cccc13)-c1c(C3CCCCC3)c3ccc(C(=O)O)cc3n1CCC2` [Compound 452], the IC50 was determined as 325 nM.
The same measure, in the same setting: with `O=C(O)c1ccc2c(C3CCCCC3)c3n(c2c1)CCCn1cc(Cl)c2cccc-3c21` [Compound 455] the figure was 160 nM.
As for `O=C(O)c1ccc2c(C3CCCCC3)c3n(c2c1)CCCn1ccc2c(Cl)ccc-3c21` [Compound 456], the IC50 is 125 nM.
Take `O=C(O)c1ccc2c(C3CCCCC3)c3n(c2c1)CCCn1cc(CN2CCCCC2)c2c(Cl)ccc-3c21` [Compound 457]: the IC50 is 195 nM.
Regarding `CN1CCN(Cc2cn3c4c(ccc(Cl)c24)-c2c(C4CCCCC4)c4ccc(C(=O)O)cc4n2CCC3)CC1` [Compound 458], the IC50 stood at 196 nM.
Same read-out and setting: with `CCN(C)Cc1cn2c3c(ccc(Cl)c13)-c1c(C3CCCCC3)c3ccc(C(=O)O)cc3n1CCC2` [Compound 459] the figure was 160 nM; with `COc1ccc2c3c1ccn3CCCn1c-2c(C2CCCCC2)c2ccc(C(=O)O)cc21` [Compound 460], 211 nM.
In the case of `COc1ccc2c3c1c(CN1CCCCC1)cn3CCCn1c-2c(C2CCCCC2)c2ccc(C(=O)O)cc21` [Compound 461], the IC50 came out at 368 nM.
Same read-out and setting: next, `CCN(C)Cc1cn2c3c(ccc(OC)c13)-c1c(C3CCCCC3)c3ccc(C(=O)O)cc3n1CCC2` [Compound 462]: 414 nM; `COc1ccc2c3c1c(CNC(C)C)cn3CCCn1c-2c(C2CCCCC2)c2ccc(C(=O)O)cc21` [Compound 463]: 2060 nM; `O=C(O)c1ccc2c(C3CCCCC3)c3n(c2c1)CCCn1cc(CN2CCCCC2)c2ccnc-3c21` [Compound 464]: 960 nM.
Still for that read-out and setting: with `CCN(CC)Cc1cn2c3c(nccc13)-c1c(C3CCCCC3)c3ccc(C(=O)O)cc3n1CCC2` [Compound 465] the figure was 1720 nM; with `O=C(O)c1ccc2c(C3CCCCC3)c3n(c2c1)CCCn1ccc2cc(F)cc-3c21` [Compound 466], 85 nM; with `O=C(O)c1ccc2c(C3CCCCC3)c3n(c2c1)CCCn1cc(CN2CCCCC2)c2cc(F)cc-3c21` [Compound 467], 95 nM.
The same measure, in the same setting: with `O=C(O)c1ccc2c(C3CCCCC3)c3n(c2c1)CCn1cc(CN2CCCCC2)c2c(F)ccc-3c21` [Compound 468] the figure was 84 nM; with `COc1ccc2c3c1c(CN1CCN(C)CC1)cn3CCCn1c-2c(C2CCCCC2)c2ccc(C(=O)O)cc21` [Compound 469], 662 nM; with `O=C(O)c1ccc2c(C3CCCCC3)c3n(c2c1)CCN1CCC(NC2CCCCC2)c2cccc-3c21` (stereo not shown) [compound 281], 61 nM.

A further assay deals with T2, NS5B (Hepatitis C virus genotype 1b, UniProt Q9WMX2).
T2 construct: 3 nM NS5B, 20 nM polyC RNA template
Put plainly: Polymerase assay, incorporation of radiolabeled GTP with biotinylated oligoG13 primer and polycytidylic acid RNA template. Format: biochemical. Conditions: polyC RNA template, biotin-oligoG13 primer, tritiated GTP, 3 nM NS5B, 30° C., 2 hours. As for the experimental part: The polymerase activity was also assayed by measuring incorporation of radiolabeled GTP into an RNA product using a biotinylated oligoG13 primer with a polycytidylic acid RNA template. Typically, the assay mixture (40 μL) contains 50 mM HEPES (pH 7.3), 2.5 mM magnesium acetate, 2 mM sodium chloride, 37.5 mM potassium acetate, 5 mM DTT, 0.4 U/mL RNasin, 2.5% glycerol, 3 nM NS5B, 20 nM polyC RNA template, 20 nM biotin-oligoG13 primer, and 0.2 μM tritiated guanosine triphosphate. Test compounds were initially dissolved and diluted in 100% DMSO and further diluted into aqueous buffer, producing a final concentration of 5% DMSO. Typically, compounds were tested at concentrations between 0.2 nM and 10 μM. Reactions were started with addition of tritiated guanosine triphosphate and allowed to continue at 30° C. for 2 hours. Reactions were quenched with 100 μL stop buffer containing 10 mM EDTA and 1 μg/mL streptavidin-coated scintillation proximity beads. Reaction plates were incubated at 4° C. for 10 hours and then incorporation of radioactivity was determined by scintillation counting. The table below lists the IC50 values of compounds determined using this procedure.
`O=C(O)c1ccc2c(C3CCCCC3)c3n(c2c1)CCN1CCC(NC2CCCC2)c2cccc-3c21` (racemic) [Compound 280] gave a half-maximal inhibitory concentration (IC50) of 2.18 nM.
In turn, `NCCC1CCN2CCn3c(c(C4CCCCC4)c4ccc(C(=O)O)cc43)-c3cccc1c32` (single isomer, unassigned) [Compound 302, 4-(2-Aminoethyl)-15-cyclohexyl-5,6,8,9-tetrahydro-4H-indolo[1′,2′:4,5][1,4]diazepino[6,7,1-ij]quinoline-12-carboxylic acid] returned a half-inhibitory concentration (IC50) of 2.68 nM.
As for `O=C(O)c1ccc2c(C3CCCCC3)c3n(c2c1)CCCn1cc(N2CCCCC2)c2cccc-3c21` [Compound 261], the IC50 came out at 3 nM.
Compound `CC1(C)C(=O)N2CCCn3c(c(C4CCCCC4)c4ccc(C(=O)O)cc43)-c3cccc1c32` [Compound 265, 12-cyclohexyl-1,1-dimethyl-2-oxo-1,2,5,6-tetrahydro-4H-[1,5]diazocino[1,2-a:5,4,3-h′i′]diindole-9-carboxylic acid] showed an IC50 of 9 nM.
`CCC1(CC)C(=O)N2CCCn3c(c(C4CCCCC4)c4ccc(C(=O)O)cc43)-c3cccc1c32` [Compound 266, 12-cyclohexyl-1,1-diethyl-2-oxo-1,2,5,6-tetrahydro-4H-[1,5]diazocino[1,2-a:5,4,3-h′i′]diindole-9-carboxylic acid] had a half-maximal inhibitory concentration (IC50) of 11 nM.
Regarding `CCC1(CC)C(=O)N2CCCn3c(c(C4CCCCC4)c4ccc(C(=O)O)cc43)-c3ccc(F)c1c32` [Compound 267, 12-cyclohexyl-1,1-diethyl-15-fluoro-2-oxo-1,2,5,6-tetrahydro-4H-[1,5]diazocino[1,2-a:5,4,3-h′i′]diindole-9-carboxylic acid], the IC50 amounted to 10 nM.
Same read-out and setting: next, `O=C(O)c1ccc2c(C3CCCCC3)c3n(c2c1)CCCN1C(=O)C2(CC2)c2cccc-3c21` [Compound 269, 12′-cyclohexyl-2′-oxo-5′,6′-dihydro-4′H-spiro[cyclopropane-1,1′-[1,5]diazocino[1,2-a:5,4,3-h′i′]diindole]-9′-carboxylic acid]: 21 nM.
In turn, `O=C(O)c1ccc2c(C3CCCCC3)c3n(c2c1)CCCN1C(=O)Cc2cccc-3c21` [Compound 270, 12-cyclohexyl-2-oxo-1,2,5,6-tetrahydro-4H-[1,5]diazocino[1,2-a:5,4,3-h′i′]diindole-9-carboxylic acid] displayed an IC50 of 26 nM.
As to `CC1(C)CN2CCCn3c(c(C4CCCCC4)c4ccc(C(=O)O)cc43)-c3cccc1c32` [Compound 271, 12-cyclohexyl-1,1-dimethyl-1,2,5,6-tetrahydro-4H-[1,5]diazocino[1,2-a:5,4,3-h′i′]diindole-9-carboxylic acid], the IC50 turned out to be 15 nM.
Still for that read-out and setting: with `CN1CCC2(C1)C(=O)N1CCCn3c(c(C4CCCCC4)c4ccc(C(=O)O)cc43)-c3cccc2c31` (stereo not shown) [Compound 272, 12-cyclohexyl-1′-methyl-2-oxo-5,6-dihydro-4H-spiro[1,5-diazocino[1,2-a:5,4,3-h′i′]diindole-1,3′-pyrrolidine]-9-carboxylic acid] the figure was 30 nM.
In turn, `NC1CCN2CCn3c(c(C4CCCCC4)c4ccc(C(=O)O)cc43)-c3cccc1c32` (stereo not shown) [Compound 273, 4-Amino-15-cyclohexyl-5,6,8,9-tetrahydro-4H-indolo[1′,2′:4,5][1,4]diazepino[6,7,1-ij]quinoline-12-carboxylic acid] returned an IC50 of 4.39 nM.
Still for that read-out and setting: with `N[C@@H]1CCN2CCn3c(c(C4CCCCC4)c4ccc(C(=O)O)cc43)-c3cccc1c32` [Compound 274, (4R)-4-amino-15-cyclohexyl-5,6,8,9-tetrahydro-4H-indolo[1′,2′:4,5][1,4]diazepino[6,7,1-ij]quinoline-12-carboxylic acid] the figure was 2.45 nM.

For orientation: IC50 means the concentration that gives 50% inhibition.
